Reference: patent US6825350B2, “Sulfonamide and sulfamide substituted imidazoquinolines and methods for the treatment of periodontal disease using these and other immune response modifiers” (3M Innovative Properties Company, priority 1999, dated 2004)

Columns and labels:
interferon (α) = assay: Cytokine induction in human cells: interferon (α) by ELISA; format: cell-based; conditions: Homo sapiens, PBMC, human PBMCs, 18 to 24 hours incubation, ELISA of culture supernatant; read-out: Lowest Effective Concentration (μM) Interferon
[1] = system: tumor necrosis factor (α); assay: Cytokine induction in human cells: tumor necrosis factor (α) by ELISA; format: cell-based; conditions: Homo sapiens, PBMC, human PBMCs, 18 to 24 hours incubation, ELISA of culture supernatant; read-out: Lowest Effective Concentration (μM) Tumor Necrosis Factor

SMILES	minimal effective concentration (interferon (α)) [µM]	minimal effective concentration [1] [µM]
CCCCc1nc2c(N)nc3ccccc3c2n1CCCCNS(=O)(=O)c1ccc(F)cc1 [Example 87]	0.001	1
CCCCc1nc2c(N)nc3ccccc3c2n1CCNS(=O)(=O)c1ccc(Cl)c(Cl)c1 [Example 22]	0.37	> 30
COCCc1nc2c(N)nc3ccccc3c2n1CCCCNS(=O)(=O)Cc1ccccc1 [Example 113]	0.0001	> 10
COCCc1nc2c(N)nc3ccccc3c2n1CCCCNS(=O)(=O)N[C@H](C)c1ccccc1 [Example 226]	0.0001	0.1
CCCCc1nc2c(N)nc3ccccc3c2n1CCCCNS(=O)(=O)C[C@]12CC[C@@H](CC1=O)C2(C)C [Example 89]	0.001	1
CCCCc1nc2c(N)nc3ccccc3c2n1CCCCNS(=O)(=O)c1ccc2ccccc2c1 [Example 42]	0.01	> 30
COCCc1nc2c(N)nc3c(c2n1CCCCNS(=O)(=O)c1ccccc1)CCCC3 [Example 210]	0.0001	1
COCCc1nc2c(N)nc3c(c2n1CCCCNS(=O)(=O)C[C@@]12CCC(CC1=O)C2(C)C)CCCC3 [Example 212]	0.0001	0.01
COCCc1nc2c(N)nc3ccccc3c2n1CCCCNS(=O)(=O)C[C@]12CCC(CC1=O)C2(C)C [Example 148]	0.0001	1
COc1ccc(S(=O)(=O)NCCCCn2cnc3c(N)nc4c(c32)CCCC4)cc1 [Example 65]	3.33	> 30
CCCCc1nc2c(N)nc3ccccc3c2n1CCCCNS(=O)(=O)c1ccc(I)cc1 [Example 46]	0.37	> 30
CCCCc1ccc(S(=O)(=O)NCCCCn2c(CCCC)nc3c(N)nc4ccccc4c32)cc1 [Example 98]	1	> 10
CCCS(=O)(=O)NCCCCn1c(CCOC)nc2c(N)nc3ccccc3c21 [Example 116]	0.001	1
COCCc1nc2c(N)nc3ccccc3c2n1CCCCNS(=O)(=O)NC(C)(C)C [Example 230]	0.0001	1
COCCc1nc2c(N)nc3ccccc3c2n1CCCCNS(=O)(=O)c1ccc(F)cc1 [Example 121]	0.0001	10
CCCCc1nc2c(N)nc3ccccc3c2n1CCCCNS(=O)(=O)c1c(C)noc1C [Example 94]	0.001	1
COCCc1nc2c(N)nc3ccccc3c2n1CCCCNS(=O)(=O)C[C@@]12CCC(CC1=O)C2(C)C [Example 200]	0.01	0.1
CCCS(=O)(=O)NCCCCn1c(CCOC)nc2c(N)nc3c(c21)CCCC3 [Example 208]	0.0001	1
COCCc1nc2c(N)nc3ccccc3c2n1CCCCNS(=O)(=O)c1ccc(Cl)s1 [Example 131]	0.0001	1
CCCCc1nc2c(N)nc3ccccc3c2n1CCCCNS(=O)(=O)c1ccc(C)c([N+](=O)[O-])c1 [Example 97]	0.1	10
CCCCc1nc2c(N)nc3ccccc3c2n1CCCCNS(=O)(=O)c1c(F)cccc1F [Example 93]	0.001	0.1
CCCCc1nc2c(N)nc3ccccc3c2n1CCNS(=O)(=O)c1ccc(C)cc1 [Example 23]	0.12	10
